Legend:
[1] = biological target: Histone acetyltransferase KAT2B (Homo sapiens) (UniProt Q92831); conditions: time 30.0 min
Homo sapiens = organism: Homo sapiens; conditions: time 30.0 min
[2] = biological target: Bromodomain adjacent to zinc finger domain protein 2B (Homo sapiens) (UniProt Q9UIF8); conditions: time 30.0 min
[3] = biological target: SWI/SNF-related matrix-associated actin-dependent regulator of chromatin subfamily A member 4 (Homo sapiens) (UniProt P51532); conditions: time 30.0 min
Sequence of SWI/SNF-related matrix-associated actin-dependent regulator of chromatin subfamily A member 4 (Homo sapiens) (P51532 whole entry): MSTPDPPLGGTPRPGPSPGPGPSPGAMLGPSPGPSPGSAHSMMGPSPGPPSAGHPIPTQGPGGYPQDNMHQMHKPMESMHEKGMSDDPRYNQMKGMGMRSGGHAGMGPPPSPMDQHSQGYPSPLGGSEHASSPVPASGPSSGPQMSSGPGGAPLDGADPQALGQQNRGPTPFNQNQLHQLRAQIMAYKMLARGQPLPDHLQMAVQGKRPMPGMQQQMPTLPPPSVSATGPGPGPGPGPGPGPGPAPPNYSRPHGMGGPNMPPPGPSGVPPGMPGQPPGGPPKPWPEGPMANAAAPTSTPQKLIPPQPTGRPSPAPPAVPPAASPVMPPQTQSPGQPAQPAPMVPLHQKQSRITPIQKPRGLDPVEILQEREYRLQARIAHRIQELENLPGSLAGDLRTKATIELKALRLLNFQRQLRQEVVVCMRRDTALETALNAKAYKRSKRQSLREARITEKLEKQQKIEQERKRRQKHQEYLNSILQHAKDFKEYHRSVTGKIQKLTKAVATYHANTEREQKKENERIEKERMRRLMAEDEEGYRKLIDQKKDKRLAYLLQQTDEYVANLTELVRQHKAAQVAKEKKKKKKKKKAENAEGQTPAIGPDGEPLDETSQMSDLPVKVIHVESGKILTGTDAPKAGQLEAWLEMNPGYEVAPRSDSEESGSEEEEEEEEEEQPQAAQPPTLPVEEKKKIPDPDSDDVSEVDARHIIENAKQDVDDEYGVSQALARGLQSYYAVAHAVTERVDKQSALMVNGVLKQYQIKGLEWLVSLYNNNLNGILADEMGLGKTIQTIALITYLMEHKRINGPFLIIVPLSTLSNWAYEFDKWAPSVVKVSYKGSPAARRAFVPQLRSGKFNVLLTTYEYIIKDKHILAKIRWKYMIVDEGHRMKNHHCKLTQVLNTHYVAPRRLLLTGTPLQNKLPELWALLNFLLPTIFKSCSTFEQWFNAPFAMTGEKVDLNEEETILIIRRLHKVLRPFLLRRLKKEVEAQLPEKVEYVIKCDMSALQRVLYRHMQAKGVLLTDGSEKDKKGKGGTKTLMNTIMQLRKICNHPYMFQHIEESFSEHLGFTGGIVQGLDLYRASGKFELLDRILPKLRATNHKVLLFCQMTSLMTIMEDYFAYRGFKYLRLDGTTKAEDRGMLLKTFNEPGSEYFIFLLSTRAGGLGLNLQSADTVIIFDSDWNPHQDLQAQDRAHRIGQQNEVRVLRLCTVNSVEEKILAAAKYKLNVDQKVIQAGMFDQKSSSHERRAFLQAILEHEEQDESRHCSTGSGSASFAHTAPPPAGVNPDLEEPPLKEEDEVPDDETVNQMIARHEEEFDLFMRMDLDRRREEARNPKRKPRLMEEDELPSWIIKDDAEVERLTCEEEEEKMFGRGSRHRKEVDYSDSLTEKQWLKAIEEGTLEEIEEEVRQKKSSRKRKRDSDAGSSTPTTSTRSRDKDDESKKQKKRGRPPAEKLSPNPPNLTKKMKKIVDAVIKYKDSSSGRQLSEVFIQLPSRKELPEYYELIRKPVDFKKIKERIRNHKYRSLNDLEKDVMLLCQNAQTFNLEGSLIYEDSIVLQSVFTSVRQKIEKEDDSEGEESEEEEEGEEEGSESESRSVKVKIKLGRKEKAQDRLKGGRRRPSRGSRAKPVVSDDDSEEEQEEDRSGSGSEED

Peregrin (Homo sapiens) = biological target: T1, Peregrin (Homo sapiens) (UniProt P55201); assay: Binding affinity to BRPF1 (unknown origin) using biotinylated histone peptide H4 as substrate at 1 uM incubated for 2 hrs by AlphaScreen assay relative to control
T1 sequence (whole entry): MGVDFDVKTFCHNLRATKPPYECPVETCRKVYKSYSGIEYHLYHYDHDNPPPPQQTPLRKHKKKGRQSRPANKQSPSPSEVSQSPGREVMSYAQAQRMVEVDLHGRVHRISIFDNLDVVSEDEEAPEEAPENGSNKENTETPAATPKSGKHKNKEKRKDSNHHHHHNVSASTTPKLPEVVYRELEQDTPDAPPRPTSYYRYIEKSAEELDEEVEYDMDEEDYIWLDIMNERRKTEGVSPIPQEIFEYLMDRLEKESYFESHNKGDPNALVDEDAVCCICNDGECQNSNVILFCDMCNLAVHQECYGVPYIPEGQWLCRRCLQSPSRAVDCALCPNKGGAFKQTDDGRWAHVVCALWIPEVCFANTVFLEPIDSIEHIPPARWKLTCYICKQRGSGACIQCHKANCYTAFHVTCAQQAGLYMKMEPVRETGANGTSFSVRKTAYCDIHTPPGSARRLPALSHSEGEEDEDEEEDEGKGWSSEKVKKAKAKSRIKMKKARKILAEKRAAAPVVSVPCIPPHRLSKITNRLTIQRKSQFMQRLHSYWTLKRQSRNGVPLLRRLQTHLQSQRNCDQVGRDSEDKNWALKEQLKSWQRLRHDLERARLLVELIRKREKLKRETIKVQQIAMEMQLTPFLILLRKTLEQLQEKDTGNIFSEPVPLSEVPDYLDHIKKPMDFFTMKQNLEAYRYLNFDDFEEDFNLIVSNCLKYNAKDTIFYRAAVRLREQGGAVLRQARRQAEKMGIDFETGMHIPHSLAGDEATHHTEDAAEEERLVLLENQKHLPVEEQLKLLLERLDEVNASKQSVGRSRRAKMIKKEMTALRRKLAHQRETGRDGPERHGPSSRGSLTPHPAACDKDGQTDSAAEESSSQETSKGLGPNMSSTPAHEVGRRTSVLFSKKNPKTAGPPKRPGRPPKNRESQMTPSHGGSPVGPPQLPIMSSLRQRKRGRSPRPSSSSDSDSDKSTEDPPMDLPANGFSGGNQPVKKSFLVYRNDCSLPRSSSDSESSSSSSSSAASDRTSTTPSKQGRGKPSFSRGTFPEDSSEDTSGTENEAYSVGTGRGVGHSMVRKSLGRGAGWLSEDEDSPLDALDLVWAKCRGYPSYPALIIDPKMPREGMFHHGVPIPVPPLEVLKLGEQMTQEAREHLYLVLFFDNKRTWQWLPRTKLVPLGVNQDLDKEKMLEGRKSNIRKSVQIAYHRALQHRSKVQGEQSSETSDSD

[4] = biological target: T2, Bromodomain-containing protein 7 (Homo sapiens) (UniProt Q9NPI1); conditions: time 30.0 min
T2 sequence (whole entry): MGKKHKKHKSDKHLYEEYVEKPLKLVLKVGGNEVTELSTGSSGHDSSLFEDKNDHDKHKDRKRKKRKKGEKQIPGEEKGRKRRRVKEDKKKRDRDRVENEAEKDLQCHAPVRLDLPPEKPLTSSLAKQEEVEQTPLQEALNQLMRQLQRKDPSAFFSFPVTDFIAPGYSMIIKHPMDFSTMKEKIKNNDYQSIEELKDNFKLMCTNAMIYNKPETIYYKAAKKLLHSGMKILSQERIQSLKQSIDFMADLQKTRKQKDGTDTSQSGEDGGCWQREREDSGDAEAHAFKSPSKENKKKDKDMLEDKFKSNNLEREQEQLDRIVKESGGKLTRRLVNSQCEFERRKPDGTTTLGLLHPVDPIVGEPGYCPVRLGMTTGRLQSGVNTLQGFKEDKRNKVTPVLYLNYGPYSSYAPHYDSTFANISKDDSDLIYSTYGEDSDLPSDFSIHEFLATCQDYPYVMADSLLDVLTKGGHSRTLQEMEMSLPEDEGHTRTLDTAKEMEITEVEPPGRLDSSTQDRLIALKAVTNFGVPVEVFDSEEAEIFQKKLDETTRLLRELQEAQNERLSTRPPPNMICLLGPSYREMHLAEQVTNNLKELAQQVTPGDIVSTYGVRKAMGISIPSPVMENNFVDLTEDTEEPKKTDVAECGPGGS

[5] = biological target: T3, Bromodomain-containing protein 9 (Homo sapiens) (UniProt Q9H8M2); conditions: time 30.0 min
T3 sequence (whole entry): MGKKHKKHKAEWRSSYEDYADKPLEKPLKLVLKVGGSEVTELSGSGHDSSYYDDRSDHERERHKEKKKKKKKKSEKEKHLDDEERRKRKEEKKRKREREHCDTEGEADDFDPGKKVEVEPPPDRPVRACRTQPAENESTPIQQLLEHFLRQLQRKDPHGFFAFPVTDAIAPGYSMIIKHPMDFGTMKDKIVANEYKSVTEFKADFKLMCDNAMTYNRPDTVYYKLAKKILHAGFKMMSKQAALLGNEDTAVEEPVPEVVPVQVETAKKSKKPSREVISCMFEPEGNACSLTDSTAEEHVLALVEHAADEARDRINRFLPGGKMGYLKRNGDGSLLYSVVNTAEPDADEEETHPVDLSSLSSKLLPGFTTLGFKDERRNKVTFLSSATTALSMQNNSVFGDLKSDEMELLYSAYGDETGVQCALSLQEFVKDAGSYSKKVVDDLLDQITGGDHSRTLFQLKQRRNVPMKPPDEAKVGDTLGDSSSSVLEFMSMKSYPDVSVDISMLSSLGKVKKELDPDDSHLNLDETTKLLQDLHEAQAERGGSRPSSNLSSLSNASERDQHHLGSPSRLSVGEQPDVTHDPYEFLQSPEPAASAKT

[6] = biological target: Transcription initiation factor TFIID subunit 1 (Homo sapiens) (UniProt P21675); conditions: time 30.0 min
Sequence of Transcription initiation factor TFIID subunit 1 (Homo sapiens) (P21675 whole entry): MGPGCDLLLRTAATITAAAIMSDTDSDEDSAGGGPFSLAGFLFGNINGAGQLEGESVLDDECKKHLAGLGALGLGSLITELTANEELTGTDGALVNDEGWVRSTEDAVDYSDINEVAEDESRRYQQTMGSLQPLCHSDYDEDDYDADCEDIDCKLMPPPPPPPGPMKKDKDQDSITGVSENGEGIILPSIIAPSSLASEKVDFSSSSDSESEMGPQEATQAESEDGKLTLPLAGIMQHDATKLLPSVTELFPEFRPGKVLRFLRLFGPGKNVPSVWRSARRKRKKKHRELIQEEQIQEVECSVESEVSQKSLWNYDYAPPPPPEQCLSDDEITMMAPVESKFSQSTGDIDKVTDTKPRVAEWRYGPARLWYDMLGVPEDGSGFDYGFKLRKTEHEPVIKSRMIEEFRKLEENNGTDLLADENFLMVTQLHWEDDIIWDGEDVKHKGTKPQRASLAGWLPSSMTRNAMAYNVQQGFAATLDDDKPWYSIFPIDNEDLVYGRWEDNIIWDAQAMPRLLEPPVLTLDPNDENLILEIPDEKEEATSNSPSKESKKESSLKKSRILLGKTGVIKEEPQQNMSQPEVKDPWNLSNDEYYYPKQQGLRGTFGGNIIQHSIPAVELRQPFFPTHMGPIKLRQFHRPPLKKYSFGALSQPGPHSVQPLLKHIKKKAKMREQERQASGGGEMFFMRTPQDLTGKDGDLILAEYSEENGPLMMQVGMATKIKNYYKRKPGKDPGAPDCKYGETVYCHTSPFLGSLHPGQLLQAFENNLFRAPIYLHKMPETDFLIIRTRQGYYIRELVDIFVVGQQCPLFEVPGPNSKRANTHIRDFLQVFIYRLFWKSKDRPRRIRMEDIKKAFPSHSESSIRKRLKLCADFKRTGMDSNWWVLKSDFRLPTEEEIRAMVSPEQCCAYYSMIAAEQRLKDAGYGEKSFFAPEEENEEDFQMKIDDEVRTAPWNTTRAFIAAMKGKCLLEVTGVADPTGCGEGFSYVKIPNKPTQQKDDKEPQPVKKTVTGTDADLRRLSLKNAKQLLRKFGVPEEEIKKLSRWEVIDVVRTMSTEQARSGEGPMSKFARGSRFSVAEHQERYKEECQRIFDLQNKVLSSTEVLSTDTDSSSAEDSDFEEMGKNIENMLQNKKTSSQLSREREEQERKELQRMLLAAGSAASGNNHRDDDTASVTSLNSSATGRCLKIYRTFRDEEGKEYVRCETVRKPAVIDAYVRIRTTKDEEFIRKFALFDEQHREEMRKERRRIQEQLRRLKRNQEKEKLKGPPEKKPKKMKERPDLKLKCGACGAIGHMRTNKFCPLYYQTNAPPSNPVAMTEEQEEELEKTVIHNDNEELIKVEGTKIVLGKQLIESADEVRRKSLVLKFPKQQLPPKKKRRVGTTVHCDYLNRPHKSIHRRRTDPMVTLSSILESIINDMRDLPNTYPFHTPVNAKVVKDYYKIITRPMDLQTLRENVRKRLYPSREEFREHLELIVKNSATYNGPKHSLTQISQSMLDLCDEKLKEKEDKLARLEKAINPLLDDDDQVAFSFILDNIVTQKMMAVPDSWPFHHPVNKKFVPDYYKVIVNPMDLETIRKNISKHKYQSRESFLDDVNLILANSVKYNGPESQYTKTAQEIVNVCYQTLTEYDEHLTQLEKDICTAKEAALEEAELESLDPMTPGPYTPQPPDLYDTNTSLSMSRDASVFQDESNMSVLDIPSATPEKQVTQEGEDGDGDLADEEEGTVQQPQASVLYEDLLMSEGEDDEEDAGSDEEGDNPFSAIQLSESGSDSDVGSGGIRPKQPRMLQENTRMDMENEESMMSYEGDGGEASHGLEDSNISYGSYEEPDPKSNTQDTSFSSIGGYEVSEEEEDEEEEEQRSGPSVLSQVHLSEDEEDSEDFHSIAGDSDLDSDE

Sequence of Histone acetyltransferase KAT2B (Homo sapiens) (Q92831 whole entry, looked up): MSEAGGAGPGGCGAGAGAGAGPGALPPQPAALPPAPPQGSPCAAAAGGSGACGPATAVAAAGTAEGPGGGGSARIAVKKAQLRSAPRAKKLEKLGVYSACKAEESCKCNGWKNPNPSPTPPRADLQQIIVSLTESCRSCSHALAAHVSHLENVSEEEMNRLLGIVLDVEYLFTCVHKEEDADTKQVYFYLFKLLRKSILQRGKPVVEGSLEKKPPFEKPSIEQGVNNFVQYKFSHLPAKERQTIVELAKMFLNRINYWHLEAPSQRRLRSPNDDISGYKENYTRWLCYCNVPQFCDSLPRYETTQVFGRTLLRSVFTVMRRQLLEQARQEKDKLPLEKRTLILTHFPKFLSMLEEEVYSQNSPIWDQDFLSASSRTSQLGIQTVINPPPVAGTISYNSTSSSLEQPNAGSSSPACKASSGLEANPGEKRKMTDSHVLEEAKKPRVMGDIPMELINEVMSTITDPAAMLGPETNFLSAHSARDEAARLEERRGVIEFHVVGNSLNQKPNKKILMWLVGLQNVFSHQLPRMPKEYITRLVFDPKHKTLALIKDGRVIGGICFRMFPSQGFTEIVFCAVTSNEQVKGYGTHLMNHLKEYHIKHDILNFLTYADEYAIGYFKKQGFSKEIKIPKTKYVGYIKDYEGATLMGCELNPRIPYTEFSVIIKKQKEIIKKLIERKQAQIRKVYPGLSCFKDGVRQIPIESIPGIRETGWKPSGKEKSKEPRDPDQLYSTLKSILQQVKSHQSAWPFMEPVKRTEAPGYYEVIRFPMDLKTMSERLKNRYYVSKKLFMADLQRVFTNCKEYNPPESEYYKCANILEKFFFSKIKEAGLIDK

Structure (SMILES) | ΔTm [1] [°C] | ΔTm (Homo sapiens) [°C] | ΔTm [2] [°C] | ΔTm [3] [°C] | Activity (Peregrin (Homo sapiens)) [%] | ΔTm [4] [°C] | ΔTm [5] [°C] | ΔTm [6] [°C]
COc1cc2c(cc1-c1c(C)noc1C)ncc1nc(C)n([C@H](C)c3ccccc3)c12 | 0 | 0 | 0 | 0 | < 30 | 0 | 0 | 0
COc1cc2c(cc1-c1c(C)n[nH]c1C)ncc1nc(C)n([C@H](C)c3ccccc3)c12 | 0 | 0 | 0 | 0 | < 30 | 0 | 0 | 0
